# Values of other authors as cited in patent US20160106774A1, “LIQUID PHARMACEUTICAL COMPOSITION CONTAINING PIROXICAM AND HYALURONIC ACID FOR THE TREATMENT OF OSTEOARTHRITIS” (DONG-A ST CO., LTD, priority 2013, published 2016).
# Test system: carrageenan-induced animal podedema model
# Settings: coadministration of NSAID with sodium hyaluronate; piroxicam 4 mg/kg and sodium hyaluronate 4 mg/kg; foot pad
row,Compound,anti-inflammatory effect of coadministration with sodium hyaluronate
1,O=C(O)Cc1ccccc1Nc1c(Cl)cccc1Cl [diclofenac],additive or synergistic effects
2,CC(C)Cc1ccc(C(C)C(=O)O)cc1 (stereo not shown) [ibuprofen],additive or synergistic effects
3,COc1ccc2c(c1)c(CC(=O)O)c(C)n2C(=O)c1ccc(Cl)cc1 [indomethacin],additive or synergistic effects
4,CN1C(C(=O)Nc2ccccn2)=C(O)c2ccccc2S1(=O)=O [piroxicam],weak
